One may read the Log P as the decadic logarithm of the partition coefficient of the neutral form, usually between octanol and water. Usually logP stands for a log measure of how a compound divides between an organic and an aqueous phase. A low value points to lower lipophilicity.

The subject of series [1] is AD NFT. Nature of the series: Staining of neurofibrillary tangles (NFT) in AD temporal lobe sections. Note: key: positive (+) staining for both plaques and tangles; did not bind (−) AD pathology. The format is binding, human. The following applies: 5 μM dye in PBS. The procedure: (§1) Paraffin-embedded formalin-fixed tissue from the temporal lobe of AD patients was obtained through the MA ADRC Brain Bank. Sections were stained with 0.05% Thio S to visualize plaques and NFT. Tissue was then stained with 5 μM dye in PBS. Slides were imaged on an Olympus Microscope at 20×, with a GFP emission filter for Thio S, and appropriate emission ranges for the dyes.

The target of series [2] is T1, Lewy neurites (Homo sapiens, UniProt P37840).
T1 construct: Post-mortem midbrain tissue from DLB and PD patients was obtained from the HBTRC Brain Bank at McLean Hospital; tissue HBTRC Brain Bank at McLean Hospital; host or cells: formalin-fixed post-mortem human midbrain (DLB and PD patients)
In words: Staining of Lewy neurites in post-mortem DLB/PD midbrain tissue. For all read-outs here: key: positive staining with high contrast (++); positive staining with low contrast (+); negative staining (−). The following applies: for Lewy Neurites Contrast: DLB/PD post-mortem midbrain tissue, dyes in PBS at 500 nM, 5 μM for 30 minutes; for staining on a LN (FIG. 2): DLB post-mortem midbrain tissue. The series is classed as binding.
Procedure: (§3) Post-mortem midbrain tissue from DLB and PD patients was obtained from the HBTRC Brain Bank at McLean Hospital. Tissue was fixed with formalin and immuno-stained with H3C primary antibody for synuclein and Alexa488 or Cy5 (not shown) conjugated secondary antibody. Immuno-stained tissue was incubated with fluorescent dyes in PBS at concentrations of 500 nM, 2 μM, and 5 μM for 30 minutes. Slides of tissue were imaged with Olympus Microscope at 60× with appropriate filter set.

The nature of series [3]: Log P.
For series [4], the target named is T2, Lewy bodies (Homo sapiens, UniProt P37840).
T2 construct: Post-mortem midbrain tissue from DLB and PD patients was obtained from the HBTRC Brain Bank at McLean Hospital; tissue HBTRC Brain Bank at McLean Hospital; host or cells: formalin-fixed post-mortem human midbrain (DLB and PD patients)
Nature of the series: Staining of Lewy bodies in post-mortem DLB/PD midbrain tissue. For staining on a LB (FIG. 2): key: positive staining with high contrast (++); positive staining with low contrast (+); negative staining (−). The format is binding. As to conditions: for Lewy Bodies Contrast: DLB/PD post-mortem midbrain tissue, dyes in PBS at 500 nM, 5 μM for 30 minutes; for staining on a LB (FIG. 2): DLB post-mortem midbrain tissue.
Procedure: as §3

Series [5] in a line: Blood-brain barrier crossing by in vivo fluorescence imaging after IV injection. As to conditions: for BBB Crossing: mouse, in vivo.
From the text: (§2) Wide field fluorescence images were taken with a CCD camera on an Olympus microscope.
Images were taken with a BIO-RAD MRC1024 multi-photon microscope.
as §2

For series [6], the system named is AD Plaque. Nature of the series: Staining of plaques in AD temporal lobe sections. Note: key: positive (+) staining for both plaques and tangles; did not bind (−) AD pathology. The format is binding, human. The following applies: 5 μM dye in PBS. The protocol:
as §1

For series [7] the following is noted: PD/APP transgenic mouse (18 mo), tail vein, 10 mg/kg, multi-photon microscope; cited from earlier work.

Regarding “4-[4-[4-(dimethylamino)phenyl]-1,3-butadienyl]-1-ethyl quinolinium [LDS 798]”, the “AD NFT Contrast” value in series [1] is “−”. In addition, in series [2] (2 μM), the “Lewy Neurites Contrast” value is given as “−”. In addition, the “Log P” value in series [3] was 1.8. In addition, the “Lewy Bodies Contrast” value in series [4] (2 μM) was “+ +”. In addition, in series [5], the “BBB Crossing” value is listed as “+”. In addition, the “BBB crossing (wide field fluorescence time course)” value in series [5] (wildtype mouse, IV, 10 mg/kg in 6% DMSO and 1×PBS) is “crosses BBB and rapidly enters brain”. The “AD Plaque Contrast” value in series [6] is “−”.

As to `CCN=c1cc2oc3c4c5c(cc3nc-2c2ccccc12)CCCN5CCC4` [Oxazine 750, reference compound], in series [2] (5 μM), the “staining on a LN (FIG. 2)” value is “−”. Further, in series [4] (5 μM), the “staining on a LB (FIG. 2)” value is recorded as “−”.

In the case of `CC[n+]1ccc(C=CC=Cc2ccc(N(C)C)cc2)cc1.[O-][Cl+3]([O-])([O-])[O-]` [LDS 722, 4-[4-[4-(dimethylamino)phenyl]-1,3-butadienyl]-1-ethyl-pyridinium perchlorate], the “AD NFT Contrast” value in series [1] is “+ +”. In series [2] (2 μM), the “staining on a LN (FIG. 2)” value is “++” and the “Lewy Neurites Contrast” value was “+”. The compound further yielded a logP in series [3] of 1.04. In series [4] (2 μM), the “staining on a LB (FIG. 2)” value is reported as “++” and the “Lewy Bodies Contrast” value is listed as “+ +”. Further, in series [6], the “AD Plaque Contrast” value is recorded as “+ +”.

Turning to `CN(C)c1ccc(C=CC=CC2=[N+](C)c3ccccc3C2(C)C)cc1.[O-][Cl+3]([O-])([O-])[O-]` [LDS 730, 2-[4-[4-(dimethylamino)phenyl]-1,3-butadienyl]-1,3,3-trimethyl-3H-indolium perchlorate], the “AD NFT Contrast” value in series [1] is “+”. Further, the “Lewy Neurites Contrast” value in series [2] (2 μM) was “−”. In addition, in series [4] (2 μM), the “Lewy Bodies Contrast” value is given as “+”.

For the compound `[11CH3]Nc1ccc(-c2nc3ccc(O)cc3s2)cc1` [PiB], the “time to cross the BBB after IV injection” value in series [7] was no more than 1 min.

With `CCN1C(=CC=CC=Cc2sc3ccccc3[n+]2CC)Sc2ccccc21.[I-]` [3-3′-DTDCI, 3,3′-diethylthiadicarbocyanine iodide], the “AD NFT Contrast” value in series [1] was “−”. For the same compound, the “Lewy Neurites Contrast” value in series [2] (2 μM) is reported as “−”. Besides, the “Lewy Bodies Contrast” value in series [4] (2 μM) is given as “+”. The “BBB Crossing” value in series [5] is “−”. The “AD Plaque Contrast” value in series [6] is given as “+”.

As for `CCN(CC)c1ccc2nc3c4ccccc4c(=O)cc-3oc2c1` [Nile Red, 9-diethylamino-5-benzo[α]phenoxazinone], the “AD NFT Contrast” value in series [1] is listed as “−”. In addition, the “Lewy Neurites Contrast” value in series [2] (2 μM) was “−”. In series [3], this compound yielded a logP of 3.51. Besides, the “Lewy Bodies Contrast” value in series [4] (2 μM) is reported as “+”. Besides, the “AD Plaque Contrast” value in series [6] is given as “−”.

As for `O=C1NC(=S)NC(=O)C1=C/C=C/C=C/c1c(O)[nH]c(=S)[nH]c1=O` [THK-265], the “AD NFT Contrast” value in series [1] is “−”. Also, the “Lewy Neurites Contrast” value in series [2] (2 μM) is recorded as “−”. Further, the “Lewy Bodies Contrast” value in series [4] (2 μM) is “+”. The “BBB Crossing” value in series [5] was “−”. Moreover, in series [6], the “AD Plaque Contrast” value is on record as “+”.

`CN1C(=CC=CC=CC=CC2=[N+](C)c3ccccc3C2(C)C)C(C)(C)c2ccccc21.[O-][Cl+3]([O-])([O-])[O-]` [HITC ClO4, 2-[7-(1,3-dihydro-1,3,3-trimethyl-2H-indol-2-ylidene)-1,3,5-heptatrienyl]-1,3,3-trimethyl-3H-indolium perchlorate]: the “AD NFT Contrast” value in series [1] is recorded as “−”. For the same compound, the “Lewy Neurites Contrast” value in series [2] (2 μM) was “−”. In addition, the “Lewy Bodies Contrast” value in series [4] (2 μM) is “+”. The “AD Plaque Contrast” value in series [6] was “−”.

On to `O=S(=O)([O-])c1ccccc1C=Cc1ccc(-c2ccc(C=Cc3ccccc3S(=O)(=O)[O-])cc2)cc1.[Na+].[Na+]` [Stilbene 420, 2,2″-([1,1′-biphenyl]-4.4′-diyldi-2,1-ethenediyl)bis-benzenesulfonic acid disodium salt], for which the “AD NFT Contrast” value in series [1] was “+”. Besides, the “Lewy Neurites Contrast” value in series [2] (2 μM) is “+”. Besides, in series [4] (2 μM), the “Lewy Bodies Contrast” value is reported as “+ +”.

Take `CCN(CC)c1ccc2nc3c(cc(N)c4ccccc43)[o+]c2c1.[O-][Cl+3]([O-])([O-])[O-]` [Nile Blue 690 ClO4, 5-amino-9-(diethylamino)-benzo[a]phenoxazin-7-ium perchlorate]: the “AD NFT Contrast” value in series [1] was “−”. For the same compound, the “Lewy Neurites Contrast” value in series [2] (2 μM) is “−”. Also, the “Lewy Bodies Contrast” value in series [4] (2 μM) was “+ +”. For the same compound, in series [6], the “AD Plaque Contrast” value is “−”.

(Values after patent publication US9242015B2, “Development and screening of contrast agents for in vivo imaging of Parkinson's disease” (The General Hospital Corporation, priority 2010, dated 2016).)
